The experiment deals with T1, CCR4 (Homo sapiens, UniProt P51679).
T1 construct: host or cells: CEM cells
T1 sequence (P51679 1-360): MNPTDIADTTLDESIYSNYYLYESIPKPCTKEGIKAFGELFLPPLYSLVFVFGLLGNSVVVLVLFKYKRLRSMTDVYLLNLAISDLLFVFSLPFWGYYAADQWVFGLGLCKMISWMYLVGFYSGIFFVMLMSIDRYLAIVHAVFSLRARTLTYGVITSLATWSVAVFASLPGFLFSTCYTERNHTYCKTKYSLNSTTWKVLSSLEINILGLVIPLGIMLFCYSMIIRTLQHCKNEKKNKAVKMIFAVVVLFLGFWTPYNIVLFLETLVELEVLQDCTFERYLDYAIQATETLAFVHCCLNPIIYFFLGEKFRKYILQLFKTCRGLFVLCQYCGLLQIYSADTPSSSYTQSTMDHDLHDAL
Kind of experiment: CCR4 binding assay (inhibition of 125I-TARC binding to cells expressing CCR4). The note with it: CCR4 antagonist activity. The source says: This example illustrates a CCR4 binding assay that can be used for evaluating the compounds of the present invention.
Detection of Radiolabelled TARC and/or MDC Binding to CCR4
^125I-labelled TARC and MDC are available from commercial sources (e.g., Amersham-Pharmacia or Perkin Elmer Life Sciences). All buffers and materials are available from commercial sources (e.g., Gibco BRL, Sigma). To measure binding of ^125I-TARC or ^125I-MDC to cells expressing CCR4 (e.g., CEM cells, available from the ATCC), the ^125I-TARC or ^125I-MDC is diluted to a concentration of approximately 200 pM in a buffered saline solution (e.g., RPMI supplemented with 0.5% bovine serum albumin), and added to an equal volume of a suspension of cells (e.g., CEM cells at 5×10^6 cells/mL). The resulting mixture is incubated for a period of time (e.g., 2 hours). The unbound ^125I-TARC or ^125I-MDC is separated from the cells by filtration, e.g., by passage through GF/B filter plate (Packard Biosciences) pre-treated with 0.3% polyethyleneimine (Sigma), using a Packard Filtermate 96 (Packard Biosciences). The amount of ^125I-TARC or ^125I-MDC retained with the cells on the filterplate is measured by adding a small amount of scintillation fluid (e.g., 50 μL of Microscint-20, obtained from Packard Biosciences), and reading scintillation on appropriate detection equipment, e.g., a Packard TopCount 383 (Packard Biosciences).
Non-specific binding of ^125I-TARC or ^125I-MDC can be estimated by measuring the amount of ^125I-TARC or ^125I-MDC retained with the cells on the filterplate when the assay is performed in the presence of a large excess of unlabelled TARC or MDC.
Inhibition of ^125I-TARC or ^125I-MDC binding to CCR4 is defined as a decrease in the retention of ^125I-TARC or ^125I-MDC to the cells on the filterplate.
The assay described above varies only moderately from standardly used procedures, e.g., Imai et al. (1997) J. Biol. Chem. 272:15036-15042, Imai et al. (1998) J. Biol. Chem. 273:1764-1768.
Take `c1ccc(CN2CCc3sc(Nc4cccc5ccccc45)nc3C2)cc1` [Compound 20]: the IC50 is more than 1000 nM.
`CC(C)CN(Cc1csc(Nc2cccc3ccccc23)n1)CC(C)C` [Compound 15] registered an IC50 of more than 1000 nM.
`Clc1ccc2nc(Nc3cccc4ccccc34)sc2c1` [Compound 19] returned an IC50 of less than 1000 nM.
`CC(C)CN(CC(C)C)C(C)c1csc(Nc2cccc3ccccc23)n1` (stereo not shown) [Compound 18]: the IC50 was more than 1000 nM.

The record behind these values is patent publication US7262204B2, “Modulation of CCR4 function” (Amgen Inc., priority 2000, dated 2007).
